Among the data in patent publication EP4667466A1, “PROTAC DEGRADERS OF MLLT1 AND/OR MLLT3” (priority 2024, dated 2025) are inhibition and IC50 values, retold here.

One assay concerns the target T1, MLLT1 (Homo sapiens, UniProt Q03111).
T1 construct: endogenous in cells; host or cells: MV4-11 (ATCC CRL-9591)
T1 sequence (Q03111 1-559): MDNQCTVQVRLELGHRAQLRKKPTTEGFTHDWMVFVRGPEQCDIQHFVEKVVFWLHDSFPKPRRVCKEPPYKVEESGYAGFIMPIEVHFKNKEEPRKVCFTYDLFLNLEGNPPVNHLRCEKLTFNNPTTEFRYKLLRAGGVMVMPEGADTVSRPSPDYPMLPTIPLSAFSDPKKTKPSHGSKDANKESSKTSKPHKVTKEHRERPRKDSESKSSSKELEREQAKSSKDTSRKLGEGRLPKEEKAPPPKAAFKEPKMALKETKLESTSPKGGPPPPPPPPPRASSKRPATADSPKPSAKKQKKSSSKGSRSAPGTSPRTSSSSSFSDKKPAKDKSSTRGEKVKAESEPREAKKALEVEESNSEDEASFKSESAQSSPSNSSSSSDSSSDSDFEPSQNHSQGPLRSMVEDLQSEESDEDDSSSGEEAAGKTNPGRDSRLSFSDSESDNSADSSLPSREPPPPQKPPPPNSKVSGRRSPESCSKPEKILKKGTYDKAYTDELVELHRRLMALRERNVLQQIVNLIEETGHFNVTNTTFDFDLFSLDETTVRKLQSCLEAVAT
The assay is described as follows: MLLT1 degradation assay (JESS automated chemiluminescent detection) in MV4-11 cells. Particulars: 24h, with respect to DMSO control. In kind it is cell-based. The procedure, abridged: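 MV4-11 cells were treated with 1000, 100 or 10 nM compound (0.1% DMSO) for 24 h at 37 °C. Lysates (4 µg protein) were probed for MLLT1 and GAPDH by JESS capillary chemiluminescence. Degradation was calculated from band peak areas versus DMSO control and binned into categories A–D.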

Another assay concerns MV4-11 cells. Put plainly: MV4-11 cellular proliferation assay, Assay Format A (CellTiter-Glo, 120 hours). It is filed as cell-based. The note with it: Homo sapiens, Assay method A, read-out: MV4-11 antiproliferative IC50. How it is done:
An MV4-11 proliferation assay was used to test the ability of compounds to reduce cell viability.
After 120 hours of treatment, cells were incubated for 10 min at RT with the CellTiter-Glo (CTG) reagent (G7571, Promega). Measurement of the luminescence signal was performed on a microplate reader (Ensight, PerkinElmer). CTG reagent measures the amount of ATP, which is directly proportional to the number of cells, to determine the number of viable cells in culture.
The data were analysed as follows: Data normalization, N(x) = (x−〈cr〉)/(〈sr〉−〈cr〉) × 100 [formula] where x is the measured raw signal value of a well, (cr) is the median of the measured signal values for the Central Reference (DMSO) wells on a plate, (sr) is the median of the measured signal values for the Scale Reference (reference compound) wells on a plate. Curve fitting, S0 + (Sinf −S0)/(1 + (((AC50)/(10^c)))^n) [formula] where the experimental set-up assumes the Hill parameters in certain ranges: S0 ~ Central Reference (CR) from normalization (= Bottom), Sinf ~ Scale Reference (SR) from normalization (= Top), nHill ~ 1, AC50 ~ within the measured concentration range.
Background: Cellular ATP, detected with luciferase, serves as a proxy for viable cell number.

Bounds are passed on as bounds.

As usually defined, the inhibition is the drop in the measured response relative to a control, in per cent. Broadly, the IC50 is the concentration that inhibits the measured activity by half. Regarding `Cc1nn(CCCCCCCCNc2cccc3c2CN(C2CCC(=O)NC2=O)C3=O)c2cc(C(=O)Nc3cc4[nH]c([C@H]5CCCN5C)cc4cn3)ccc12` (stereo partly drawn) [Example 16, 1-(8-{[2-(2,6-dioxopiperidin-3-yl)-1-oxo-3H-isoindol-4-yl]amino}octyl)-3-methyl-N-{2-[(2R)-1-methylpyrrolidin-2-yl]-1H-pyrrolo[3,2-c]pyridin-6-yl}indazole-6-carboxamide], on MLLT1, the inhibition at 0.01 µM was not below 75%, the inhibition at 0.1 µM was not below 75% and the inhibition at 1 µM was not below 75%. Moreover, the IC50 in the assay on MV4-11 cells was determined as 9 nM.

Turning to `Cc1nn(CCCCC#Cc2cccc3c2CN(C2CCC(=O)NC2=O)C3=O)c2cc(C(=O)Nc3cc4[nH]c([C@H]5CCCN5C)cc4cn3)ccc12` (stereo partly drawn) [Example 46, 1-(6-(2-(2,6-dioxopiperidin-3-yl)-1-oxoisoindolin-4-yl)hex-5-yn-1-yl)-3-methyl-N-(2-((R)-1-methylpyrrolidin-2-yl)-1H-pyrrolo[3.2-c]pyridin-6-yl)-1H-indazole-6-carboxamide], on MLLT1, the inhibition at 0.01 µM is not below 75%, the inhibition at 0.1 µM was not below 75% and the inhibition at 1 µM was in the range of 50 to 75%. For the same molecule, the IC50 with MV4-11 cells stood at 7 nM.

On MLLT1, `Cc1nn(CCOCCNc2cccc3c2C(=O)N(C2CCC(=O)NC2=O)C3=O)c2cc(C(=O)Nc3cc4[nH]c([C@H]5CCCN5C)cc4cn3)ccc12` (stereo partly drawn) [Example 26, 1-(2-(2-((2-(2,6-dioxopiperidin-3-yl)-1,3-dioxoisoindolin-4yl)amino)ethoxy)ethyl)-3-methyl-N-(2-((R)-1-methylpyrrolidin-2-yl)-1H-pyrrolo[3,2-c]pyridin-6-yl)-1H-indazole-6-carboxamide] showed an inhibition at 0.1 µM not below 75% and an inhibition at 1 µM not below 75%. Besides, in the assay on MV4-11 cells, the IC50 stood at 14 nM.
